Source: patent US6506555B1, “Use of HIV protease inhibiting compounds” (Institut National de la Sante et de la Recherche Medicale …, priority 1998, dated 2003)
Like-named read-outs stand apart in the source and are kept apart here.

What was measured:
Hybridoma FT7.9 (MHC-I) = assay: IL-2 release by hybridoma FT7.9 cocultured with NOD pancreatic islets; type: cell-based, NOD mice
Procedure: Ritonavir (0.6 mg per 10 g of body weight per day) or a placebo (phosphate buffer PBS) was administered by the intraperitoneal route to NOD mice. The pancreatic islets were removed and cultured for 24 hours in the presence or in the absence of 2.5 μg/ml of ritonavir. The cells were then cocultured with MHC-1-restricted hybridomas (FT6.9 and FT7.9 for 24 hours). The quantity of IL-2 was assayed in the supernatant. The following tables present the quantities of IL-2 measured by a test of proliferation (cpm×10^−3).

CD8+ T lymphocytes = assay: Proliferation of the CD8+ T lymphocytes in vivo (FACS of splenocytes); design: species or system mice; details: 200 pfu LCMV-WE i.v., anti-CD8 FACS
[1] = target: T1, 20S proteasomes isolated from murine B8 fibroblasts (Mus musculus, UniProt O55234+P70195+Q60692); assay: Hydrolysis of fluorogenic substrates by isolated 20S proteasomes; type: biochemical
T1 construct: 20S proteasomes isolated from murine B8 fibroblasts; endogenous in cells; host or cells: murine B8 fibroblasts; 20S proteasome purified from the cells
Procedure: FIGS. 4B, 4C and 4D show the hydrolysis of the fluorogenic substrate (100 μM Suc-LLVY-MCA, 100 μM (Z)-GGL-MCA and 400 μM Bz-VGR-MCA) of the 20S proteasomes isolated from murine B8 fibroblasts, as a function of variable concentrations of ritonavir and of LLnL (N-acetyl-L-leucinyl-L-leucinal-L-norleucinal, known inhibitor of the proteasome). The results are reported for one hour of digestion with the 20S proteasome (500 ng) in a final volume of 100 μl. The values were located in a linear detection domain and are the mean values of triplicates with standard errors of less than 3%.
The hydrolysis of Suc-LLVY-MCA by the 20S murine proteasomes was tested according to the method described in Example 4.2. under identical conditions except for the fact that a different batch of purified proteasomes was used. The hydrolysis of Suc-LLVY-MCA was measured in the presence of increasing concentrations of ritonavir, nelfinavir (Roche), saquinavir (mesylate) and indinavir (active ingredient of Crixivan® marketed by Merck and Sharp and Dohme). The HIV protease inhibitors were dissolved beforehand in ethanol, methanol, DMSO and water respectively, for use in vitro (FIG. 4E).

[2] = Appearance of type 1 diabetes in NOD mice; type: in vivo; details: ritonavir versus diluent
Procedure: FIG. 5 represents the percentage of nondiabetic NOD mice as a function of time, in the case of a treatment with ritonavir compared with administration of a diluent.
Ritonavir (0.6 mg per 10 g of body weight per day) or a placebo (phosphate buffer PBS) was administered by the intraperitoneal route to NOD mice. The pancreatic islets were removed and cultured for 24 hours in the presence or in the absence of 2.5 μg/ml of ritonavir. The cells were then cocultured with MHC-1-restricted hybridomas (FT6.9 and FT7.9 for 24 hours). The quantity of IL-2 was assayed in the supernatant.

cytotoxic T lymphocytes = type: in vivo, C57BL/6 mice; details: splenocytes eight days after i.v. LCMV-WE; EL4 cells sensitized with GP33-41 or NP peptide
[3] = Experimental allergic encephalitis in rats; type: in vivo, Lewis rats; design: key to clinical score of EAE: 1: weakness of the movements of the tail; 2: incomplete paralysis of the hindquarters; 3: complete paralysis of the hindquarters; 4: incomplete paralysis of the forequarters; 5: total immobility
Procedure: Experimental allergic encephalitis in rats is the only model of multiple sclerosis in humans. The guinea pig MBP (Myelin Basic Protein) is administered to 7-week old female Lewis rats by a subcutaneous injection, into the footpad, of 50 μg of MBP in 100 μl of complete Freund's adjuvant supplemented with 4 μg/ml of mycobacteria. There are administered, in addition, to these rats, daily, either 1 mg, 5 mg or 10 mg of ritonavir, per animal, or a placebo (phosphate buffer) of MBP injection until the animals not treated with ritonavir are killed. The clinical scores measuring the progression of the experimental allergic […] following: 1: weakness of the movements of the tail; 2: incomplete paralysis of the hindquarters; 3: complete paralysis of the hindquarters; 4: incomplete paralysis of the forequarters; and 5: total immobility. About eight days after this immunization with MBP, the control rats started to show the first stages of paralysis (temporary) due to the immune response caused by the administration of myelin.

class I molecules = assay: Maturation and surface expression of class I molecules; type: cell-based
[4] = Experimental allergic encephalitis in mice and transfer of protection; type: in vivo
Procedure: In this experiment, healthy recipient mice not treated with ritonavir received, by the intravenous and/or peritoneal route, cells of the lymph nodes and of the spleen obtained from donor mice treated with ritonavir and having been subjected to the protocol for induction of EAE described above in Example a) and adapted to mice.
The popliteal, inguinal and mesenteric ganglia and the spleen are removed at D10 after injection of MBP, cultured in the presence of 50 μg/ml of MBP. On the third day of culture, the nonadherent cells are recovered, passed over Ficoll and injected into the recipient mice (10×10^6 injected cells).

[5] = tested on: antibodies specific for the LCMV nucleoprotein and glycoprotein; assay: Antibody response to LCMV nucleoprotein and glycoprotein (ELISA); type: in vivo, mice; details: ELISA after four and eight weeks
Procedure: The antibodies specific for the LCMV nucleoprotein and for the LCMV glycoprotein were evaluated after four and eight weeks by an ELISA test as described in O. Planz, P. Seiler, H. Hengartner and R. M. Zinkernagel, Nature, 382, 629 […].

[6] = in vivo PBS, in vitro ritonavir 2.5 μg/ml
[7] = in vivo ritonavir, in vitro PBS
[8] = in vivo ritonavir, in vitro ritonavir
[9] = 100 μM substrate, one hour digestion, 500 ng 20S proteasome
[10] = patients with hepatic cytolysis (cytolysis +)
[11] = patients without hepatic cytolysis (cytolysis −)

## CC(C)c1nc(CN(C)C(=O)N[C@H](C(=O)N[C@@H](Cc2ccccc2)C[C@H](O)[C@H](Cc2ccccc2)NC(=O)OCc2cncs2)C(C)C)cs1 [ritonavir]
Hybridoma FT7.9 (MHC-I); [6]
  percentage in brackets (reduction of IL-2 versus PBS/PBS): 53%
  quantity of IL-2 measured by a test of proliferation: 43 cpm×10^−3
Hybridoma FT7.9 (MHC-I); [7]
  percentage in brackets (reduction of IL-2 versus PBS/PBS): 24%
  quantity of IL-2 measured by a test of proliferation: 70 cpm×10^−3
Hybridoma FT7.9 (MHC-I); [8]
  percentage in brackets (reduction of IL-2 versus PBS/PBS): 20%
  quantity of IL-2 measured by a test of proliferation: 74 cpm×10^−3
CD8+ T lymphocytes
  proliferation of the CD8+ T lymphocytes in response to the LCMV virus: Inhibition
[1]; [9]
  hydrolysis of the fluorogenic substrate Suc-LLVY-MCA: potent inhibitor
  hydrolysis of the substrate (Z)-GGL-MCA: hardly affected
[1]; 400 μM substrate, one hour digestion, 500 ng 20S proteasome
  cleavage of the substrate Bz-VGR-MCA ("trypsin" type activity): substantially increased
[1]; different batch of purified proteasomes, increasing concentrations
  "chimotrypsin-like" activity (hydrolysis of Suc-LLVY-MCA), comparison of four HIV-1 protease inhibitors: inhibits
[1]; summary statement
  "chymotrypsin-like" activity of the proteasome: inhibited
  "trypsin" activity of the proteasome: increased
HCV; during the therapy
  anti-HCV antibody titre: increases only in the patients exhibiting cytolysis
HCV; patients coinfected with HCV and HIV
  patients in whom the ALAT concentrations increased: 57%
HCV; [10]
  Ac index (variation of anti-HCV antibody titre, ratio of the optical densities): 2.19(+/−1.68)
  variation of CD4: 109.4(+/−113) cells /mm^3
  variation of CD8: 203.6(+/−650) cells /mm^3
  variation of HCV-VL (viral HCV load): +0.61 log10 of copies of RNA/ml
HCV; patients with hepatic cytolysis (cytolysis +), listed as RTN
  variation of HCV-VL (viral HCV load): 0.61(+/−0.3) log10 of copies of RNA/ml
HCV; [11]
  Ac index (variation of anti-HCV antibody titre, ratio of the optical densities): 0.98(+/−0.24)
  variation of CD4: 88.3(+/−170) cells /mm^3
  variation of CD8: 281.8(+/−394) cells /mm^3
  variation of HCV-VL (viral HCV load): +0.22 log10 of copies of RNA/ml
HCV; patients without hepatic cytolysis (cytolysis −), listed as RTN
  variation of HCV-VL (viral HCV load): 0.22(+/−0.35) log10 of copies of RNA/ml
HCV; ritonavir group, third month
  ALAT concentration peak, mean maximum value: 418 IU/1
  ALAT concentration peak, variation: 96-1570 IU/1
[2]
  appearance of type 1 diabetes: delays
Cytotoxic T lymphocytes
  lysis of the target cells (direct lysis ex vivo after systemic infection): reduced
[3]; other rats treated with 10 mg per animal daily
  clinical score of EAE: 1
[3]; rats treated with 10 mg per animal daily
  development of the disease (EAE): two did not develop the disease
[3]; rats treated with 1 and 5 mg per animal daily
  appearance of the first signs of paralysis: delayed
Class I molecules
  expression at the surface of the class I molecules: not significantly blocked
  maturation of the class I molecules in the endoplasmic reticulum (resistance to endoglycosidase-H): not significantly blocked
[4]; 10×10^6 lymph node and spleen cells injected, EAE induction at D30 after the transfer
  symptoms of EAE in recipient mice after transfer of cells from donor mice treated with ritonavir: no symptom of EAE
[4]; mouse, in vivo
  EAE in mice treated with ritonavir: Results similar to those described in rats
[5]
  capacity for synthesizing anti-virus antibodies: does not reduce
